Measured values: the supplement of paper PMC10307832

What was measured:
Test in all cases: relative viability (nuclei count vs DMSO), 5 days (fraction); higher = more cells survive
Cabozantinib + OSI-027 = compound: COc1cc2nccc(Oc3ccc(NC(=O)C4(C(=O)Nc5ccc(F)cc5)CC4)cc3)c2cc1OC [Cabozantinib] + COc1cccc2cc(-c3nc([C@H]4CC[C@H](C(=O)O)CC4)n4ncnc(N)c34)[nH]c12 [OSI-027] (partner 0.5 µM)
Outline: (§1)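 The day after seeding in 1536-well plates, lung cancer cell lines were treated by pin tool with a single drug, or with a fixed anchor-drug dose together with five library-drug doses (not always all listed) in √10 steps. After 5 days, a combined fix-and-stain solution (final 0.05% Triton X-100, 1% formaldehyde, 1 ug/ml Hoechst) was added. Nuclei counted on 4× images gave relative viability as treated counts over vehicle counts, reported as the median of duplicate plates.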

[1] = compound: COc1cc2nccc(Oc3ccc(NC(=O)C4(C(=O)Nc5ccc(F)cc5)CC4)cc3)c2cc1OC [Cabozantinib] + Nc1nc2[nH]cc(CCc3ccc(C(=O)N[C@@H](CCC(=O)O)C(=O)O)cc3)c2c(=O)[nH]1 [Pemetrexed] (partner 0.2 µM)
Outline: as §1

Zosuquidar + Phenformin = compound: O[C@@H](COc1cccc2ncccc12)CN1CCN([C@@H]2c3ccccc3[C@@H]3[C@H](c4ccccc42)C3(F)F)CC1 [Zosuquidar] + N=C(N)NC(=N)NCCc1ccccc1 [Phenformin] (partner 250 µM)
Outline: as §1

Zosuquidar + Foretinib = compound: O[C@@H](COc1cccc2ncccc12)CN1CCN([C@@H]2c3ccccc3[C@@H]3[C@H](c4ccccc42)C3(F)F)CC1 [Zosuquidar] + COc1cc2c(Oc3ccc(NC(=O)C4(C(=O)Nc5ccc(F)cc5)CC4)cc3F)ccnc2cc1OCCCN1CCOCC1 [Foretinib] (partner 0.25 µM)
Outline: as §1

**Q.** With UMC-11 as the cell line, how does the relative viability (Cabozantinib + OSI-027; first compound 0.02 µM) read?
**A.** 0.45

**Q.** And the relative viability (Cabozantinib + OSI-027; first compound 0.06325 µM)?
**A.** 0.49

**Q.** And the relative viability (Cabozantinib + OSI-027; first compound 0.2 µM)?
**A.** 0.518

**Q.** What about the relative viability (Cabozantinib + OSI-027; first compound 0.6325 µM) of the same cell line?
**A.** 0.547

**Q.** And the relative viability (Cabozantinib + OSI-027; first compound 2 µM)?
**A.** 0.432

**Q.** And the relative viability ([1]; first compound 0.02 µM)?
**A.** 0.802

**Q.** And the relative viability ([1]; first compound 0.06325 µM)?
**A.** 0.879

**Q.** And the relative viability ([1]; first compound 0.2 µM)?
**A.** 0.782

**Q.** And the relative viability ([1]; first compound 0.6325 µM)?
**A.** 0.837

**Q.** And the relative viability ([1]; first compound 2 µM)?
**A.** 0.747

**Q.** And the relative viability (Zosuquidar + Phenformin; first compound 0.01 µM)?
**A.** 0.32

**Q.** And the relative viability (Zosuquidar + Phenformin; first compound 0.03162 µM)?
**A.** 0.331

**Q.** What about the relative viability (Zosuquidar + Phenformin; first compound 0.1 µM) of the same cell line?
**A.** 0.441

**Q.** And the relative viability (Zosuquidar + Phenformin; first compound 0.3162 µM)?
**A.** 0.386

**Q.** What about the relative viability (Zosuquidar + Phenformin; first compound 1 µM) of the same cell line?
**A.** 0.324

**Q.** And the relative viability (Zosuquidar + Foretinib; first compound 0.01 µM)?
**A.** 1.07

**Q.** What about the relative viability (Zosuquidar + Foretinib; first compound 0.03162 µM) of the same cell line?
**A.** 1.01

**Q.** And the relative viability (Zosuquidar + Foretinib; first compound 0.1 µM)?
**A.** 1.19

**Q.** What about the relative viability (Zosuquidar + Foretinib; first compound 0.3162 µM) of the same cell line?
**A.** 1.12

**Q.** And the relative viability (Zosuquidar + Foretinib; first compound 1 µM)?
**A.** 0.987
